Data reported in patent publication US20150368692A1, “ANALYSIS OF THE ESTERIFICATION LEVEL OF CEREBROSTEROL AS A TOOL FOR DIAGNOSIS AND/OR PROGNOSIS OF NEURODEGENERATION” (INBIOS S.R.L., priority 2013, published 2015).
Blank lines part the entries; values can stand above or below the molecule they belong to.

Legend:
[1] = test system: SH-SY5Y neuronal cells (neuroblastoma line), differentiated with retinoic acid; test: Survival of differentiated SH-SY5Y neuronal cells (Crystal Violet staining, absorbance at 595 nm); type: cell-based, human; conditions: for cells survived after incubation: 5 h at 37° C./5% CO2 in DMEM and 0.5% HSA, then 16 h in fresh medium
Experimental: FIG. 2. Box A. Cells from the SH-SY5Y cell line were differentiated by incubation with 10 μM of retinoic acid in DMEM containing 0.5% foetal bovine serum, 1% Pen-Strep, 1% L-glutamine, 1% of a mixture of factors known as “N2 medium supplement”, essentially in accordance with a published procedure. The incubation was performed for 3 days at 37° C. in an atmosphere containing 5% CO2 (37° C./5% CO2). 7×10^3 cells were laid in each well of a microplate and then challenged with different concentrations of 24(S)OH—CNE and finally analysed in order to evaluate the survival of the cells, as described in Example 1. Each sample was analysed in three separate experiments. The data are expressed as means±SD (SD=standard deviation). Box B. 20 μM^3H-24(S)OH—CNE (300,000 dpm/mL) was incubated with 250 ng/mL purified LCAT and proteoliposomes containing 2 μM ApoA-I and 266 μM phosphatidylcholine (ApoA-I/PC) in DMEM with 0.5% HSA for various periods of time (from 1 to 6 h) at 37° C./5% CO2. After incubation, the esterified and non-esterified forms of oxysterol were extracted and analysed as described in Example 1. The level of esterification is indicated in terms of percentage of ^3H-24(S)OH-CE. Each sample was analysed in three separate experiments. The data are expressed as means±SD. Box C. Differentiated cells, as in the key of box A, were challenged with 20 μM ^3H-24(S)OH—CNE (300,000 dpm/mL) previously treated or untreated, as described for box B, with LCAT and ApoA-I/PC for 5 h. […] The culture medium was analysed in order to measure any unincorporated radioactive material, whereas the lysate was analysed in order to measure any incorporated radioactive material (expressed as % of the sum of incorporated radioactive material plus unincorporated radioactive material). […] Each sample was analysed in three separate experiments. The data are expressed as means±SD.
FIG. 3. […] Cellular survival after 5 h of incubation at 37° C./5% CO2, was evaluated as described in Example 1. Each sample was analysed in three separate experiments. The data are expressed as means±SD. […]

LCAT [2] = target: T1, LCAT (Homo sapiens, UniProt P04180); test: Activity of LCAT in esterifying 3H-24(S)OH-CNE after oxidative treatment of the enzyme; type: biochemical; conditions: 1 mM SIN-1 as oxidant, 20 min pre-incubation, stopped with antioxidant mixture; 2 μM ApoA-I/266 μM phosphatidylcholine; control 19.11±0.49; P=2.4×10^−3
T1 sequence (P04180 25-440): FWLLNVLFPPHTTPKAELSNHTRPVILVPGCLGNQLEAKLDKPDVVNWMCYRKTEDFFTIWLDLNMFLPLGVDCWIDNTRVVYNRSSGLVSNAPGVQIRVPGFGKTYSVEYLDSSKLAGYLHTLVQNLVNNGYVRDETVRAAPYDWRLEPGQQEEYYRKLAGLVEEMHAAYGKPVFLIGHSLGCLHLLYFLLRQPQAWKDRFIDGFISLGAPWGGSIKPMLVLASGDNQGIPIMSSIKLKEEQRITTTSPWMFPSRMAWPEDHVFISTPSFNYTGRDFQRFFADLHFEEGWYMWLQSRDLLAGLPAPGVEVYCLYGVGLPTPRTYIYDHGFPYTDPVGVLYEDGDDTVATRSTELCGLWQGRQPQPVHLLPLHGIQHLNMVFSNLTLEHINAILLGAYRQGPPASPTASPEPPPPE
Experimental: FIG. 5. An outline of the process to which three samples have been subjected is shown at the top. At the bottom, the components of each sample are shown in a table. […] Purified LCAT (250 ng/mL) was pre-incubated and added to the culture medium for cellular incubation (containing ApoA-I/PC) as indicated in the table at the bottom. 1 mM Asc was used to separate the pre-incubation from the incubation in the processes to which the samples were subjected. Each sample was analysed in three separate experiments. The data, expressed as means±SD, were analysed using the Graph Pad Prism 3 program (Graph Pad Software; San Diego, Calif., USA) in order to determine the significance of the difference of B from A and C (P=10^−5).
The purified enzyme LCAT was treated with an oxidative stress system and was then incubated with 24(S)OH—CNE in order to evaluate the efficiency of esterification of this oxysterol. […] The measurement of the absorbance of ABTS^[…]+ (at 414 nm) […], at 30° C., oxidative species which effectively oxidise ABTS and that the addition of 1 mM Asc to the mixture prevents or blocks oxidation of the target. […]

LCAT [3] = target: T1, LCAT; test: Esterification of 3H-24(S)OH-CNE by purified LCAT with ApoA-I/PC proteoliposomes (TLC, liquid scintillation); type: biochemical; conditions: 20 μM substrate, 250 ng/mL LCAT, proteoliposomes 2 μM ApoA-I/266 μM phosphatidylcholine, 5 h pre-incubation at 37° C./5% CO2
Experimental: FIG. 2. Box A. Cells from the SH-SY5Y cell line were differentiated by incubation with 10 μM of retinoic acid in DMEM containing 0.5% foetal bovine serum, 1% Pen-Strep, 1% L-glutamine, 1% of a mixture of factors known as “N2 medium supplement”, essentially in accordance with a published procedure. The incubation was performed for 3 days at 37° C. in an atmosphere containing 5% CO2 (37° C./5% CO2). 7×10^3 cells were laid in each well of a microplate and then challenged with different concentrations of 24(S)OH—CNE and finally analysed in order to evaluate the survival of the cells, as described in Example 1. Each sample was analysed in three separate experiments. The data are expressed as means±SD (SD=standard deviation). […] After incubation, the esterified and non-esterified forms of oxysterol were extracted and analysed as described in Example 1. […] Each sample was analysed in three separate experiments. The data are expressed as means±SD. […] The culture medium was analysed in order to measure any unincorporated radioactive material, whereas the lysate was analysed in order to measure any incorporated radioactive material (expressed as % of the sum of incorporated radioactive material plus unincorporated radioactive material). […] Each sample was analysed in three separate experiments. The data are expressed as means±SD. […]

[4] = test system: SH-SY5Y neuronal cells (neuroblastoma line), differentiated with retinoic acid; test: Incorporation of 3H-24(S)OH-CNE in differentiated SH-SY5Y cells and its esterification in the cells; type: cell-based, human; conditions: 4 h of incubation; for 3H-24(S)OH-CNE incorporated in the cultured cells: 20 μM
Experimental: FIG. 2. Box A. Cells from the SH-SY5Y cell line were differentiated by incubation with 10 μM of retinoic acid in DMEM containing 0.5% foetal bovine serum, 1% Pen-Strep, 1% L-glutamine, 1% of a mixture of factors known as “N2 medium supplement”, essentially in accordance with a published procedure. The incubation was performed for 3 days at 37° C. in an atmosphere containing 5% CO2 (37° C./5% CO2). 7×10^3 cells were laid in each well of a microplate and then challenged with different concentrations of 24(S)OH—CNE and finally analysed in order to evaluate the survival of the cells, as described in Example 1. Each sample was analysed in three separate experiments. The data are expressed as means±SD (SD=standard deviation). Box B. 20 μM^3H-24(S)OH—CNE (300,000 dpm/mL) was incubated with 250 ng/mL purified LCAT and proteoliposomes containing 2 μM ApoA-I and 266 μM phosphatidylcholine (ApoA-I/PC) in DMEM with 0.5% HSA for various periods of time (from 1 to 6 h) at 37° C./5% CO2. After incubation, the esterified and non-esterified forms of oxysterol were extracted and analysed as described in Example 1. The level of esterification is indicated in terms of percentage of ^3H-24(S)OH-CE. Each sample was analysed in three separate experiments. The data are expressed as means±SD. Box C. Differentiated cells, as in the key of box A, were challenged with 20 μM ^3H-24(S)OH—CNE (300,000 dpm/mL) previously treated or untreated, as described for box B, with LCAT and ApoA-I/PC for 5 h. After various incubation times (from 1 to 6 h), the cells were separated from the culture medium and lysed. The culture medium was analysed in order to measure any unincorporated radioactive material, whereas the lysate was analysed in order to measure any incorporated radioactive material (expressed as % of the sum of incorporated radioactive material plus unincorporated radioactive material). […] Each sample was analysed in three separate experiments. The data are expressed as means±SD.
In Step 1B, 20 μM of ^3H-24(S)OH—CNE (300,000 dpm/mL) was pre-incubated in culture medium (DMEM containing 0.5% HSA) in the presence or absence of 250 ng/mL LCAT, purified in accordance with a published procedure, and proteoliposomes containing ApoA-I and phosphatidylcholine (ApoA-I/PC), prepared in accordance with a published procedure omitting cholesterol. […] In particular, the amount of esterified ^3H-24(S)OH—CNE (that is to say ^3H-24(S)OH-CE) was measured as detailed hereinafter. […] The stationary phase regions harbouring ^3H-24(S)OH-CE (Rf=0.70-0.75) and ^3H-24(S)OH—CNE (Rf=0.25-0.35) were separately removed and then analysed for the radioactivity content thereof by liquid scintillation using the Packard TriCarb 2100TR counter (Global Medical Instrumentation, Ramsey, Mich., USA). […]

[5] = medium pre-incubated in the presence of LCAT and proteoliposomes
[6] = medium pre-incubated without LCAT and proteoliposomes

Molecule: CC(C)[C@@H](O)CC[C@@H](C)[C@H]1CC[C@H]2[C@@H]3CC=C4C[C@@H](O)CC[C@]4(C)[C@H]3CC[C@]12C [24(S)OH—CNE, cerebrosterol]
cells survived after incubation ([1]; 10 μM 24(S)OH-CNE): 58%
cells survived after incubation ([1]; 20 μM 24(S)OH-CNE): 43%

LCAT activity of esterification of 24(S)OH-CNE (mean±SD) (LCAT [2]): 12.77 ± 0.78 nmol/h/mL
Molecule: [NH-]c1c[n+](N2CCOCC2)no1 [SIN-1, 3-morpholino-sidnonimine]

3H-24(S)OH-CNE found esterified by LCAT (mean±SD) (LCAT [3]): 49.3±2.8%
Molecule: [3H]C(C([3H])[C@@H](C)[C@H]1CC[C@H]2[C@@H]3CC=C4C[C@@H](O)CC[C@]4(C)[C@H]3CC[C@]12C)[C@H](O)C(C)C (stereo partly drawn) [^3H-24(S)OH—CNE]
percentage of 3H-24(S)OH-CE in the cells [4, 5]: approximately 50%
3H-24(S)OH-CNE incorporated in the cultured cells [4, 5]: 6%
percentage of 3H-24(S)OH-CE in the cells [4, 6]: approximately 60%
3H-24(S)OH-CNE incorporated in the cultured cells [4, 6]: 14%

B1: LCAT: lecithin-cholesterol acyltransferase, E.C. 2.3.1.43; purified enzyme, used at 250 ng/mL (protein, UniProt P04180 25-440, looked up)
Phosphatidylcholine-sterol …: FWLLNVLFPPHTTPKAELSNHTRPVILVPGCLGNQLEAKLDKPDVVNWMCYRKTEDFFTIWLDLNMFLPLGVDCWIDNTRVVYNRSSGLVSNAPGVQIRVPGFGKTYSVEYLDSSKLAGYLHTLVQNLVNNGYVRDETVRAAPYDWRLEPGQQEEYYRKLAGLVEEMHAAYGKPVFLIGHSLGCLHLLYFLLRQPQAWKDRFIDGFISLGAPWGGSIKPMLVLASGDNQGIPIMSSIKLKEEQRITTTSPWMFPSRMAWPEDHVFISTPSFNYTGRDFQRFFADLHFEEGWYMWLQSRDLLAGLPAPGVEVYCLYGVGLPTPRTYIYDHGFPYTDPVGVLYEDGDDTVATRSTELCGLWQGRQPQPVHLLPLHGIQHLNMVFSNLTLEHINAILLGAYRQGPPASPTASPEPPPPE
effect of LCAT treatment of the culture medium on the toxic effect of 24(S)OH-CNE on the cells ([1]; 20 μM 24(S)OH-CNE pre-incubated 5 h with LCAT and proteoliposomes, cells 5 h, then 16 h fresh medium, versus control treatment without LCAT): significantly reduced the toxic effect
